Legend:
[1] = tested on: mouse CD8+ T cells; assay: mouse CD8+ T cells cultured in CM from NAC1 KO B16-OVA cells supplemented with LA; type: cell-based; details: 2 mM or 5 mM LA
Experimental: Next, mouse CD8^+ T cells in the CM from NAC1 KO mouse B16-OVA cells were cultured and the medium was supplemented with or without 2 mM or 5 mM LA. The addition of LA reduced the production of cytokines including TNF-alpha and IFN-gamma and increased the expression of PD-1 and TIM-3 of CD8^+ T cells (FIGS. 9A-9D). […] In parallel, NAC1 KO tumor cells were transfected with an LDHA expression retroviral vector or a retroviral backbone to overexpress LDHA in NAC1 KO B16-OVA. The mouse CD8^+ T cells in the CM were cultured from NAC1 KO B16-OVA cells overexpressing LDHA (NAC1 KO LDHA OE) or an empty control (NAC1 KO Mock). The overexpression of LDHA conferred NAC1 KO mouse tumor cells with the ability to suppress the production of cytokines and increased expression of PD-1 (FIGS. 9I-9L) and apoptosis (FIGS. 9M-9P) of mouse cytotoxic CD8^+ T cells.
In vitro analysis of CD8^+ T cells. For cytotoxicity analysis, after 24 hours of activation 5×10^5 CD8^+ T cells were cultured with WT B16-OVA and NAC1 KO B16-OVA tumor cells in the ratio of 1:5 and 1:10 respectively. Cytotoxicity was measured by the CytoTox 96 Non-Radioactive Cytotoxicity Assay from Promega (#G1780, Madison, Wisconsin, USA). For cytokine expression analysis, the CD8^+ T cells were cultured with the conditional medium (CM) that was collected from WT B16-OVA and NAC1 KO B16-OVA melanoma cells for 12 hours. Before harvesting the cells, the cells were blocked with the Monensin Solution from BioLegend (#420701, San Diego, California, USA) for 4 hours. For apoptosis analysis, after 12 hours of activation the CD8^+ T cells were incubated with the CM that was collected from WT B16-OVA and NAC1 KO B16-OVA cells for 12 hours, in the absence or presence of L-LA from Sigma-Aldrich (St Louis, MI). […]
Flow Cytometric analysis. […] Stained cell populations were acquired by LSRFortessa from BD Biosciences (Franklin, New Jersey, USA), and the results were analyzed by using FlowJo software from Tree Star (Ashland, Oregon, USA).

[2] = target: T1, NAC1 (Homo sapiens, UniProt Q96RE7); details: cited from earlier work
T1 sequence (Q96RE7 1-527): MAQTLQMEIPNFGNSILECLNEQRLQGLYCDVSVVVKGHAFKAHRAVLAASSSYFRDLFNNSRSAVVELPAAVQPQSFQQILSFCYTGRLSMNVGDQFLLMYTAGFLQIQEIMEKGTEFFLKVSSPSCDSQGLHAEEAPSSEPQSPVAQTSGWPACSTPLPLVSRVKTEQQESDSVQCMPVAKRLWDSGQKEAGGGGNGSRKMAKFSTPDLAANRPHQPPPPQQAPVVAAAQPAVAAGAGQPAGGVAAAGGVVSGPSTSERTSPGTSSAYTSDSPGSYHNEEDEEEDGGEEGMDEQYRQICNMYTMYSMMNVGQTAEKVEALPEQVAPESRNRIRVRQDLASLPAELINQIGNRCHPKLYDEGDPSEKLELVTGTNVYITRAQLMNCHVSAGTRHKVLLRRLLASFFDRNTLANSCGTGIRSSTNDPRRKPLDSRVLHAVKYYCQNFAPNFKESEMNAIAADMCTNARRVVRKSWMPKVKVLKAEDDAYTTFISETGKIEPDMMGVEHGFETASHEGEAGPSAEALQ

[3] = tested on: tumor growth; details: cited from earlier work
[4] = tested on: Tregs; assay: treatment of Tregs with pro-inflammatory cytokines; type: cell-based, mouse
Experimental: T cell culture. T cells were cultured in 48-well plates containing 1 ml RPMI 1640 (Invitrogen) with 10% fetal calf serum (Omega Scientific, CA). T cell isolation kits including mouse CD4^+ (#130-104-454), CD8a^+ (#130-104-075) and CD4^+ CD25^+ Treg (#130-091-041), T cell activation/expansion kit (#130-093-627) and Treg expansion kit (#130-095-925) were purchased from the Miltenyi Biotec (Auburn, CA). Recombinant mouse TGF-β (#763104), IL-10 (#575106), and TNF-α (#575206) were obtained from BioLegend (San Diego, CA).

Molecule: CC(O)C(=O)O (stereo not drawn) [LA, lactic acid]
- apoptosis determined by Annexin V staining [1]: higher percentage of apoptosis
- expression of PD-1 and TIM-3 of CD8+ T cells [1]: increased
- production of cytokines including TNF-alpha and IFN-gamma [1]: reduced

Molecule: CC(C)(C)c1ccc(OCC(=O)NCCNC(=O)COc2ccc(C(C)(C)C)cc2)cc1 [NIC3]
- NAC1 homodimerization [2]: can interrupt NAC1 homodimerization
- antitumor activity [3]: shows antitumor activity

Molecule: TNF-α
- FoxP3 and acetylated FoxP3 in Tregs [4]: evident downregulation
- NAC1 expression in Tregs [4]: robust upregulation

B1: IL-10: recombinant mouse cytokine from BioLegend (protein, UniProt P18893 19-178, looked up)
Interleukin-10: SRGQYSREDNNCTHFPVGQSHMLLELRTAFSQVKTFFQTKDQLDNILLTDSLMQDFKGYLGCQALSEMIQFYLVEVMPQAEKHGPEIKEHLNSLGEKLKTLRMRLRRCHRFLPCENKSKAVEQVKSDFNKLQDQGVYKAMNEFDIFINCIEAYMMIKMKS
- FoxP3 and acetylated FoxP3 in Tregs [4]: evident downregulation
- NAC1 expression in Tregs [4]: robust upregulation

Reference: patent US20250011781A1, “METHODS AND COMPOSITIONS TARGETING NUCLEUS ACCUMBENS-ASSOCIATED PROTEIN-1 FOR TREATMENT OF AUTOIMMUNE DISORDERS AND CANCERS” (THE TEXAS A&M UNIVERSITY SYSTEM, priority 2021, published 2025)
